Numbering of substitutions follows the chain as printed.
Key:
[1] = molecular target: T1, GKRP-P446L (Homo sapiens, UniProt Q14397, P446L); test: Ligand binding to free GKRP-P446L measured by TF of GKRP
T1 construct: FLAG; made in house; host or cells: Escherichia coli
T1 sequence (Q14397 1-625 P446L): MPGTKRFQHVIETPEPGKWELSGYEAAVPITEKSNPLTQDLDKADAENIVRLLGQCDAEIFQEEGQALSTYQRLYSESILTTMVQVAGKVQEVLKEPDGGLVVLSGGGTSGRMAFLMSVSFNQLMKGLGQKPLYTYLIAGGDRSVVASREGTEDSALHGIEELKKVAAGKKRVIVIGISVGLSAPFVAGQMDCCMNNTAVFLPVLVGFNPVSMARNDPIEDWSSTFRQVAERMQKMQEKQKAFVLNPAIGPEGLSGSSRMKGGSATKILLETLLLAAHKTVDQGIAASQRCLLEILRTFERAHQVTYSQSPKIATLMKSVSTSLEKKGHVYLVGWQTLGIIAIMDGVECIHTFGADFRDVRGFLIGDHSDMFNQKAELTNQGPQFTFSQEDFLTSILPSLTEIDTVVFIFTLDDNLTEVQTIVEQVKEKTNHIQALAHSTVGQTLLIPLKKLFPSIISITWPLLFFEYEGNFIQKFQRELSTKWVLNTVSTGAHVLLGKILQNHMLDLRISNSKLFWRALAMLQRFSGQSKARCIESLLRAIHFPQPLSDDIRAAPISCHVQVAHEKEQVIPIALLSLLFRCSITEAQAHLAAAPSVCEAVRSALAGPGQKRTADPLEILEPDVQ

[2] = molecular target: T2, hGKRP (0.3 μM)–GK-W99R/W167F/W257F (1 μM) complex, GKRP-P446L (Homo sapiens, UniProt P35557+Q14397, P446L/W167F/W257F/W99R); test: Ligand binding by / disassembly of GKRP-P446L–GK-W99R/W167F/W257F complex by TF of hGKRP; conditions: ligand titration of 3:1 GK–GKRP-P446L complex, 20°C
T2 construct: FLAG; GST (cleaved yes); made in house; host or cells: Escherichia coli
T2 sequence (Q14397 1-625 P446L): T1 sequence (Q14397 1-625 P446L)
T2 sequence (P35557 1-465 W99R/W167F/W257F): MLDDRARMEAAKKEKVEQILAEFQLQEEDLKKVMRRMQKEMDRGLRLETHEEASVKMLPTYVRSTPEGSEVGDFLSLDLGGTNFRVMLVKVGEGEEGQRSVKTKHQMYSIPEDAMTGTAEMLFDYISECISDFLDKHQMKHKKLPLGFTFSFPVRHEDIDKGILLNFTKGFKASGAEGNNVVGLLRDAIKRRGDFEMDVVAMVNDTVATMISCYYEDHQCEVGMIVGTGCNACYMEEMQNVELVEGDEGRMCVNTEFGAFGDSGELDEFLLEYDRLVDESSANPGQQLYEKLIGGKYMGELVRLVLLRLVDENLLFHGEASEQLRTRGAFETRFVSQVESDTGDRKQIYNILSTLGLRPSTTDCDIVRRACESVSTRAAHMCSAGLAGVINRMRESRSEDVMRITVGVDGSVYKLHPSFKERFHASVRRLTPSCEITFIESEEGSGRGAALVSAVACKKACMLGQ
Description: Spectra were measured with a Fluorolog-3-21 Jobin-Yvon Spex Instrument SA equipped with a 450 W Xenon lamp for excitation and a cooled R2658P Hamamatsu photomultiplier tube for detection. For all measurements, 90° geometry was employed and 295 nm excitation wavelengths were used to observe fluorescence emission in the 300–500 nm range. For TF, spectra slit width was set to provide a bandpath of 3 nm for excitation and 3 nm for emission. Spectra were corrected for instrumental response using Spex instrument software. A thermostatically controlled cell holder maintained sample temperature at 20°C. A thermocoupler was used to measure sample temperature. The buffer used contained 20 mM phosphate, 50 mM KCl, 1 mM EDTA and 1 mM DTT (pH 7.2).
Fluorescence data were obtained via the stepwise addition of the appropriate amount of non-fluorescent GK-W99R/W167F/W257F to GKRP in a fluorescence cuvette. […] The change in GKRP protein fluorescence during titration was also measured using time-dependent scans. A manual procedure was used such that a typical titration with 10–12 additions required 20–25 min to perform. The same buffer as described above was routinely used unless stated otherwise. The bandpath was 0.5 nm at 295 nm for excitation and 12 nm at 340 nm for emission. […] For some graphical presentations the linear form of the Hill equation was used: log[F/(Fsat−F)]=H log x−H log KD [46].

[3] = molecular target: T3, GK-WT (Homo sapiens, UniProt P35557); design: method as in ref 4 (a number printed in a supplementary file, which may have a reference list of its own: not looked up in the article's list); conditions: cited from earlier work
T3 construct: GST (cleaved yes); made in house; host or cells: Escherichia coli
T3 sequence (P35557 1-465): T2 sequence (P35557 1-465 W99R/W167F/W257F) with R99W, F167W, F257W

[4] = 0.3 μM GKRP-P446L, ligand alone, 20°C

With OC[C@H]1OC(O)[C@H](O)[C@@H](O)[C@@H]1O (stereo partly drawn) [D-Glucose, D-glucose] as the compound, how does the Kd ([1]; 0.3 μM GKRP-P446L, D-glucose alone, 20°C, read-out: S0.5) read?
Its Kd is 27 mM.

And the “H (Hill number)” value [1, 4]?
The value was 1.49.

And the “ΔF (relative fluorescence change at 340 nm)” value [1, 4]?
The value was −0.06.

What about the “effect on the TF signal of GKRP-P446L” value ([1]; ligand alone) of the same compound?
Its value is “lowered the TF signal”.

And the H [2]?
Its H is 1.

What about the “H (glucose)” value [3] of the same compound?
Its value is 1.77.

And the “glucose S0.5” value [3]?
The value was 7.5 mM.

— paper PMC4109836, “Analysis of the co-operative interaction between the allosterically regulated proteins GK and GKRP using tryptophan fluorescence” (Biochemical Journal, 2014)
